# Test results taken from patent US12570656B2, “Purine compounds for treating disorders” (MARVEL BIOTECHNOLOGY, priority 2020, dated 2026).
# Values joined by “and” are separate entries in the source; they are usually repeats but may differ in a detail not shown here. Equal entries are not always repeated. Where two headings read alike, the source gives them in different places.
# How the values were obtained:
# ADORA2A = ADORA2A (Homo sapiens, UniProt P29274); assay: GPCR screening, calcium flux (calcium mobilization), antagonist format; format: cell-based
# Method: To ascertain whether the compounds are suitable A2aR antagonists, the compounds of formulae I, II, III, and IV were subjected to GPCR screening using A2aR as the target. The screening was done using the GPCR Screening and Profiling Services by Eurofins DiscoverX Corporation.
# The compounds of formulae I, II, III, and IV were screened for GPCR activity using A2aR as the target.
# Cell lines were expanded from freezer stocks according to standard procedures. Cells were seeded in a total volume of 20 μL into black-walled, clear-bottom, Poly-D-lysine coated 384-well microplates and incubated at 37° C. for the appropriate time prior to testing.
# Assays were performed in 1× Dye Loading Buffer consisting of 1× Dye, 1× Additive A and 2.5 mM Probenecid in HBSS/20 mM Hepes. Probenicid was prepared fresh. Cells were loaded with dye prior to testing. Media was aspirated from cells and replaced with 20 μL Dye Loading Buffer. Cells were incubated for 30-60 minutes at 37° C.
# For antagonist determination, cells were pre-incubated with sample followed by agonist challenge at the EC80 concentration. Intermediate dilution of sample stocks was performed to generate 3× sample in assay buffer. After dye loading, cells were removed from the incubator and 10 μL 3× sample was added. Cells were incubated for 30 minutes at room temperature in the dark to equilibrate plate temperature. Vehicle concentration was 1%. Compound antagonist activity was measured on a FLIPR Tetra (MDS). Calcium mobilization was monitored for 2 minutes and 10 μL EC80 agonist in HBSS/20 mM Hepes was added to the cells 5 seconds into the assay.
# For antagonist and negative allosteric modulation mode assays, percentage inhibition is calculated using the following formula: % Inhibition=100%×(1−(mean RFU of test sample−mean RFU of vehicle control)/(mean RFU of EC80 control−mean RFU of vehicle control)).
# When the calcium was released, the fluorescence of the dye was increased and the increase was measured in real-time.
# FIGS. 1 to 6 show percent reacted (Y) versus concentration in μM (X). Compounds were tested in antagonist mode with the requested GPCR Biosensor Assay. For the antagonist assay, data was normalized to the maximal and minimal response observed in the presence of EC80 ligand and vehicle.
# [1] = Plasma pharmacokinetics in male CD-1 mice (1 mg/kg i.v. or 3 mg/kg p.o.); details: CD-1, mouse, in vivo
# Method: (§1) Male CD-1 mice were given either bolus 1 mg/kg i.v. or 3 mg/kg p.o. of the indicated compounds and plasma or brain concentrations were measured.
# (§2) Where: • C0 concentration extrapolated to time zero following an i.v. dose • tmax time at which maximum concentration is observed • Cmax maximum observed concentration • Apparent t1/2 apparent terminal half-life • AUC0-tlast area under the concentration vs time curve from time 0 to the time of the last measurable concentration • AUC0-inf area under the concentration vs time curve from time 0 to infinity • CL systemic clearance • MRT0-inf mean residence time from time zero to infinity • Vss steady-state volume of distribution • F oral bioavailability=(Dose^iv*AUC^po)/(Dose^po*AUC^iv)*100
# [2] = Brain pharmacokinetics and brain/plasma ratio in male CD-1 mice (1 mg/kg i.v.); format: in vivo; details: for Brain concentration / Brain/plasma concentration ratio / Kp at 5 min / Kp at 0.25 h / Kp at 0.5 h / Kp at 8 h / concentration at 5 min / concentration at 0.25 h / concentration at 0.5 h / concentration at 1 h / concentration at 2 h / concentration at 4 h / concentration at 6 h / concentration at 8 h / Kp at 1 h / Kp at 2 h / Kp at 4 h / Kp at 6 h: 1 mg/kg bolus i.v.; for Brain/plasma concentration ratio: listed as 1a; for Kp at 5 min / Kp at 0.25 h / Kp at 0.5 h / Kp at 8 h: brain and plasma; for concentration at 5 min / concentration at 0.25 h / concentration at 0.5 h / concentration at 1 h / concentration at 2 h / concentration at 4 h / concentration at 6 h / concentration at 8 h: intravenous
# Method: as §1, §2
# [3] = male, CD-1, mouse, iv, brain, i.v. 1 mg/kg
# Chain of ADORA2A (P29274 whole entry): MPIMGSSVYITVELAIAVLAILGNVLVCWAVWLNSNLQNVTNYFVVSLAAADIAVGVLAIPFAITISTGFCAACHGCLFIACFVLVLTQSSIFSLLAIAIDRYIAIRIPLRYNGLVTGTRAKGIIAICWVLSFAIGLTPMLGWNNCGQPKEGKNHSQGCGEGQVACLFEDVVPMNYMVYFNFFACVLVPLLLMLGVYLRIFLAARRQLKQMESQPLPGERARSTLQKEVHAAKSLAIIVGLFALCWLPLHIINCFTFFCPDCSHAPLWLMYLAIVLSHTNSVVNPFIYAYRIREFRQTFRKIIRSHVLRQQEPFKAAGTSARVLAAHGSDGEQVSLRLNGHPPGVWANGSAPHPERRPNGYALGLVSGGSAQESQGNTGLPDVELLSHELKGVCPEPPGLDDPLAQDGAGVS
smiles,measurement,setting,value
"CCn1c(=O)c2c(nc(/C=C/c3ccc(OC(F)F)c(OC(F)F)c3)n2C)n(CC)c1=O [Formula I, 8-[(E)-2-[3,4-bis(difluoromethoxy)phenyl]vinyl]-1,3-diethyl-7-methyl-purine-2,6-dione;hydrofluoride]",Curve Bottom,ADORA2A; Antagonist format,1.23
same,Curve Top,ADORA2A; Antagonist format,99
same,Hill,ADORA2A; Antagonist format,1.4103
same,IC50,"ADORA2A; Antagonist format, EC80 0.021 μM NECA, read-out: RC50 (IC50)",88.5 nM
same,Emax,"ADORA2A; Antagonist format, read-out: Max Response",98.1%
same,IC50,"ADORA2A; text to FIGS. 1-4, 6, antagonist mode, read-out: half maximal inhibitory concentration (IC50)",88.5 nM and 75.5 nM
same,bioavailability,[1],76%
same,AUC(0-inf),"[1]; iv, 1 mg/kg",3240 ng·h/mL
same,AUC(0-t),"[1]; iv, 1 mg/kg",2040 ng·h/mL
same,C0,"[1]; iv, 1 mg/kg",1220 ng/mL
same,Cmax,"[1]; iv, 1 mg/kg",990 ng/mL
same,MRT inf,"[1]; iv, 1 mg/kg",8.02 h
same,Tmax,"[1]; iv, 1 mg/kg",0.0833 h
same,Vd,"[1]; iv, 1 mg/kg",2.47 L/kg
same,clearance,"[1]; iv, 1 mg/kg",5.13 mL/min/kg
same,half-life,"[1]; iv, 1 mg/kg",6 h
same,AUC(0-inf),"[1]; po, 3 mg/kg",5090 ng·h/mL
same,AUC(0-t),"[1]; po, 3 mg/kg",4650 ng·h/mL
same,Cmax,"[1]; po, 3 mg/kg",424 ng/mL
same,MRT inf,"[1]; po, 3 mg/kg",11.1 h
same,Tmax,"[1]; po, 3 mg/kg",4 h
same,half-life,"[1]; po, 3 mg/kg",6.52 h
same,Brain concentration,"[2]; 5 min, individual animals 1-3",851 ng/g and 682 ng/g
same,Brain/plasma concentration ratio,"[2]; 5 min, individual animals 1-3",0.867 and 0.751
same,Brain concentration,"[2]; 0.25 h, individual animals 1-3",426 ng/g and 665 ng/g
same,Brain/plasma concentration ratio,"[2]; 0.25 h, individual animals 1-3",0.789 and 0.795
same,Brain concentration,"[2]; 0.5 h, individual animals 1-3",282 ng/g and 381 ng/g
same,Brain/plasma concentration ratio,"[2]; 0.5 h, individual animals 1-3",0.535 and 0.779
same,Brain concentration,"[2]; 1 h, individual animals 1-3",318 ng/g and 175 ng/g
same,Brain/plasma concentration ratio,"[2]; 1 h, individual animals 1-3",0.763 and 0.550
same,Brain concentration,"[2]; 2 h, individual animals 1-3",195 ng/g and 185 ng/g
same,Brain/plasma concentration ratio,"[2]; 2 h, individual animals 1-3",0.739 and 0.661
same,Brain concentration,"[2]; 4 h, individual animals 1-3",158 ng/g and 198 ng/g
same,Brain/plasma concentration ratio,"[2]; 4 h, individual animals 1-3",0.745 and 0.783
same,Brain concentration,"[2]; 6 h, individual animals 1-3",138 ng/g and 122 ng/g
same,Brain/plasma concentration ratio,"[2]; 6 h, individual animals 1-3",0.683 and 0.758
same,Brain concentration,"[2]; 8 h, individual animals 1-3",118 ng/g and 114 ng/g
same,Brain/plasma concentration ratio,"[2]; 8 h, individual animals 1-3",0.771 and 0.809
same,AUC0-tlast,"[2]; brain, i.v. 1 mg/kg","1,447 h*ng/g"
same,AUC(0-inf),"[2]; brain, i.v. 1 mg/kg",2807^a h*ng/g
same,Kp at 5 min,"[2]; male, CD-1, mouse, iv, 1 mg/kg, 5 min, individual animals 1-3, read-out: Brain/plasma concentration ratio",0.757
same,Kp at 5 min,"[2]; male, CD-1, mouse, iv, 1 mg/kg, 5 min, read-out: Brain/plasma concentration ratio, Mean",0.792
same,Kp at 0.25 h,"[2]; male, CD-1, mouse, iv, 1 mg/kg, 0.25 h, individual animals 1-3, read-out: Brain/plasma concentration ratio",0.635
same,Kp at 0.25 h,"[2]; male, CD-1, mouse, iv, 1 mg/kg, 0.25 h, read-out: Brain/plasma concentration ratio, Mean",0.74
same,Kp at 0.5 h,"[2]; male, CD-1, mouse, iv, 1 mg/kg, 0.5 h, individual animals 1-3, read-out: Brain/plasma concentration ratio",0.731
same,Kp at 0.5 h,"[2]; male, CD-1, mouse, iv, 1 mg/kg, 0.5 h, read-out: Brain/plasma concentration ratio, Mean",0.682
same,Kp at 8 h,"[2]; male, CD-1, mouse, iv, 1 mg/kg, 8 h, individual animals 1-3, read-out: Brain/plasma concentration ratio",0.902
same,Kp at 8 h,"[2]; male, CD-1, mouse, iv, 1 mg/kg, 8 h, read-out: Brain/plasma concentration ratio, Mean",0.827
same,concentration at 5 min,"[2]; male, CD-1, mouse, brain, 1 mg/kg, 5 min, individual animals 1-3, read-out: Brain concentration",818 ng/g
same,concentration at 5 min,"[2]; male, CD-1, mouse, brain, 1 mg/kg, 5 min, read-out: Brain concentration, Mean",784 ng/g
same,concentration at 0.25 h,"[2]; male, CD-1, mouse, brain, 1 mg/kg, 0.25 h, individual animals 1-3, read-out: Brain concentration",373 ng/g
same,concentration at 0.25 h,"[2]; male, CD-1, mouse, brain, 1 mg/kg, 0.25 h, read-out: Brain concentration, Mean",488 ng/g
same,concentration at 0.5 h,"[2]; male, CD-1, mouse, brain, 1 mg/kg, 0.5 h, individual animals 1-3, read-out: Brain concentration",377 ng/g
same,concentration at 0.5 h,"[2]; male, CD-1, mouse, brain, 1 mg/kg, 0.5 h, read-out: Brain concentration, Mean",347 ng/g
same,concentration at 1 h,"[2]; male, CD-1, mouse, brain, 1 mg/kg, 1 h, individual animals 1-3, read-out: Brain concentration",269 ng/g
same,concentration at 1 h,"[2]; male, CD-1, mouse, brain, 1 mg/kg, 1 h, read-out: Brain concentration, Mean",254 ng/g
same,concentration at 2 h,"[2]; male, CD-1, mouse, brain, 1 mg/kg, 2 h, individual animals 1-3, read-out: Brain concentration",159 ng/g
same,concentration at 2 h,"[2]; male, CD-1, mouse, brain, 1 mg/kg, 2 h, read-out: Brain concentration, Mean",180 ng/g
same,concentration at 4 h,"[2]; male, CD-1, mouse, brain, 1 mg/kg, 4 h, individual animals 1-3, read-out: Brain concentration",120 ng/g
same,concentration at 4 h,"[2]; male, CD-1, mouse, brain, 1 mg/kg, 4 h, read-out: Brain concentration, Mean",159 ng/g
same,concentration at 6 h,"[2]; male, CD-1, mouse, brain, 1 mg/kg, 6 h, individual animals 1-3, read-out: Brain concentration",91.2 ng/g
same,concentration at 6 h,"[2]; male, CD-1, mouse, brain, 1 mg/kg, 6 h, read-out: Brain concentration, Mean",117 ng/g
same,concentration at 8 h,"[2]; male, CD-1, mouse, brain, 1 mg/kg, 8 h, individual animals 1-3, read-out: Brain concentration",110 ng/g
same,concentration at 8 h,"[2]; male, CD-1, mouse, brain, 1 mg/kg, 8 h, read-out: Brain concentration, Mean",114 ng/g
same,Kp at 1 h,"[2]; male, CD-1, mouse, brain/plasma, iv, 1 mg/kg, 1 h, individual animals 1-3, read-out: Brain/plasma concentration ratio",0.714
same,Kp at 1 h,"[2]; male, CD-1, mouse, brain/plasma, iv, 1 mg/kg, 1 h, read-out: Brain/plasma concentration ratio, Mean",0.675
same,Kp at 2 h,"[2]; male, CD-1, mouse, brain/plasma, iv, 1 mg/kg, 2 h, individual animals 1-3, read-out: Brain/plasma concentration ratio",0.572
same,Kp at 2 h,"[2]; male, CD-1, mouse, brain/plasma, iv, 1 mg/kg, 2 h, read-out: Brain/plasma concentration ratio, Mean",0.657
same,Kp at 4 h,"[2]; male, CD-1, mouse, brain/plasma, iv, 1 mg/kg, 4 h, individual animals 1-3, read-out: Brain/plasma concentration ratio",0.8
same,Kp at 4 h,"[2]; male, CD-1, mouse, brain/plasma, iv, 1 mg/kg, 4 h, read-out: Brain/plasma concentration ratio, Mean",0.776
same,Kp at 6 h,"[2]; male, CD-1, mouse, brain/plasma, iv, 1 mg/kg, 6 h, individual animals 1-3, read-out: Brain/plasma concentration ratio",0.86
same,Kp at 6 h,"[2]; male, CD-1, mouse, brain/plasma, iv, 1 mg/kg, 6 h, read-out: Brain/plasma concentration ratio, Mean",0.767
same,Kp,"[2]; male, CD-1, mouse, brain/plasma, iv, 1 mg/kg, i.v. 1 mg/kg, read-out: Brain/plasma AUC0-tlast ratio",0.71
same,Cmax,[2]; [3],784 ng/g
same,Tmax,[2]; [3],5 min
same,half-life,"[2]; male, CD-1, mouse, iv, brain, i.v. 1 mg/kg, read-out: Apparent t1/2 (converted)",8.27 h
same,MRT inf,"[2]; male, CD-1, mouse, iv, brain, i.v. 1 mg/kg, read-out: MRT0-inf",11.2 h
